Data as given in patent US20250017940A1, “SELECTIVE PEPTIDOMIMETIC MODULATORS OF CAV2.2 (N-TYPE) VOLTAGE-GATED CALCIUM CHANNELS AND USES THEREOF” (New York University, priority 2023, published 2025).

Tests used:
Cav2.2 = biological target: T1, Cav2.2 (Rattus norvegicus, UniProt Q02294); assay: Immunocytochemistry / confocal microscopy of Cav2.2 membrane expression in DRG neurons; assay type: cell-based; details: 20 μM overnight (DMSO: 3.59±0.42)
T1 construct: Recordings were obtained from acutely dissociated DRG neurons; endogenous in cells; host or cells: primary rat DRG neurons
T1 sequence (Q02294 whole entry): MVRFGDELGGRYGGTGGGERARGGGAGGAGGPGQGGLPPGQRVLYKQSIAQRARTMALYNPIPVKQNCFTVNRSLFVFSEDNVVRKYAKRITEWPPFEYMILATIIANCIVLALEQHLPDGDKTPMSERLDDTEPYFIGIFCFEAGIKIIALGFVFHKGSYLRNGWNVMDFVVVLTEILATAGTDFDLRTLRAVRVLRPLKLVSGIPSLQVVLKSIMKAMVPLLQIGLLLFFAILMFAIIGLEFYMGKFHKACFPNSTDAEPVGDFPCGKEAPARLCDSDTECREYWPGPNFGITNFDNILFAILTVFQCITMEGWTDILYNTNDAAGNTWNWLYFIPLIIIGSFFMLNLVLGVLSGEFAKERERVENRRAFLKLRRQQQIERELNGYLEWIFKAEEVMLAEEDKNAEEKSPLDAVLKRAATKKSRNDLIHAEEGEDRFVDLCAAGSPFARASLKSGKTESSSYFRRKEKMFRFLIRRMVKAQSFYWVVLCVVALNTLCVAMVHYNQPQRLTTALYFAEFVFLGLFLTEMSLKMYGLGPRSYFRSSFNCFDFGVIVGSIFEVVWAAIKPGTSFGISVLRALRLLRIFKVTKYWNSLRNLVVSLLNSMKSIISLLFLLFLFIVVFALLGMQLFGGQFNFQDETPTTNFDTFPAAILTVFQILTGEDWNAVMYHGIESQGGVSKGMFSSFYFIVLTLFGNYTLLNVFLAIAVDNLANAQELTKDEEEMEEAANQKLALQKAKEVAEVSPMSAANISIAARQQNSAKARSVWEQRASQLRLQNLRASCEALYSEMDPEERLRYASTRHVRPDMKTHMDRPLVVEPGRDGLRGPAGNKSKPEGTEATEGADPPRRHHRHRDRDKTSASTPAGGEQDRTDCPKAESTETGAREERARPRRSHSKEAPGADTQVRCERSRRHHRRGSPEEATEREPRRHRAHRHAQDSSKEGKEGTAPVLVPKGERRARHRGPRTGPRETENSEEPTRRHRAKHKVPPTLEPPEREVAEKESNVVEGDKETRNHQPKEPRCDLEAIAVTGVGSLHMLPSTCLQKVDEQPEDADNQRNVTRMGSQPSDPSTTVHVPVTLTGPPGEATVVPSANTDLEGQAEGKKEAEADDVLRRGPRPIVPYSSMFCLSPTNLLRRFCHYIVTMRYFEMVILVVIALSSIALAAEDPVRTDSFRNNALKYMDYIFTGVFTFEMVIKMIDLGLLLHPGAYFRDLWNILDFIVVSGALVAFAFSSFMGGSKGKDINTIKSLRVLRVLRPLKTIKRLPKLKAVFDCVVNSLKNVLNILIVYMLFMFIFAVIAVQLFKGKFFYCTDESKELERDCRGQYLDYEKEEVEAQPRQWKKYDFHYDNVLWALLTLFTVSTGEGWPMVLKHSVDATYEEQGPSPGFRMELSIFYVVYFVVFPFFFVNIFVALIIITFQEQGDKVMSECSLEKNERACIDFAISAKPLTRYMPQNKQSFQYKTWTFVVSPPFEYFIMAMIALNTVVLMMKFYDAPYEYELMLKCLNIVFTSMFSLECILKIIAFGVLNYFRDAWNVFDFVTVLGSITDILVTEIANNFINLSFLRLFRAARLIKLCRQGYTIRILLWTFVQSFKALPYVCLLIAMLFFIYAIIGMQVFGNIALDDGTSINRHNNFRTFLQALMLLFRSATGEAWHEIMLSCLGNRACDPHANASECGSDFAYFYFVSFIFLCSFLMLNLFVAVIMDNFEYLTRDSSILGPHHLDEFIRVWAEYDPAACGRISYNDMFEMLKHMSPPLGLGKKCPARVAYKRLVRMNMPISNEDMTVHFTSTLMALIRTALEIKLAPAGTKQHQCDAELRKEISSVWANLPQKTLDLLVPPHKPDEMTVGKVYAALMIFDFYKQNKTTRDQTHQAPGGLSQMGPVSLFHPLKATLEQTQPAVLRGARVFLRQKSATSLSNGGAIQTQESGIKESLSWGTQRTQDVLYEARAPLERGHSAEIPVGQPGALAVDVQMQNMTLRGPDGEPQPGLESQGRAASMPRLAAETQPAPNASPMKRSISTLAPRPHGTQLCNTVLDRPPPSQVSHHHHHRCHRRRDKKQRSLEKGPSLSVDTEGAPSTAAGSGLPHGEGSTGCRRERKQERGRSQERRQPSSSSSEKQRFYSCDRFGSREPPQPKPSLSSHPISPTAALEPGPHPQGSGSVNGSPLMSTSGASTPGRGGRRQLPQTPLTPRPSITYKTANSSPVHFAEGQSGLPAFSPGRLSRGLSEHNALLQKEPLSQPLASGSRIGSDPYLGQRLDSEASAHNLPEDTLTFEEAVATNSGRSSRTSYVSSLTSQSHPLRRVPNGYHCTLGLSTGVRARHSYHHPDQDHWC
T1 sequence (P54290 25-1091 partner): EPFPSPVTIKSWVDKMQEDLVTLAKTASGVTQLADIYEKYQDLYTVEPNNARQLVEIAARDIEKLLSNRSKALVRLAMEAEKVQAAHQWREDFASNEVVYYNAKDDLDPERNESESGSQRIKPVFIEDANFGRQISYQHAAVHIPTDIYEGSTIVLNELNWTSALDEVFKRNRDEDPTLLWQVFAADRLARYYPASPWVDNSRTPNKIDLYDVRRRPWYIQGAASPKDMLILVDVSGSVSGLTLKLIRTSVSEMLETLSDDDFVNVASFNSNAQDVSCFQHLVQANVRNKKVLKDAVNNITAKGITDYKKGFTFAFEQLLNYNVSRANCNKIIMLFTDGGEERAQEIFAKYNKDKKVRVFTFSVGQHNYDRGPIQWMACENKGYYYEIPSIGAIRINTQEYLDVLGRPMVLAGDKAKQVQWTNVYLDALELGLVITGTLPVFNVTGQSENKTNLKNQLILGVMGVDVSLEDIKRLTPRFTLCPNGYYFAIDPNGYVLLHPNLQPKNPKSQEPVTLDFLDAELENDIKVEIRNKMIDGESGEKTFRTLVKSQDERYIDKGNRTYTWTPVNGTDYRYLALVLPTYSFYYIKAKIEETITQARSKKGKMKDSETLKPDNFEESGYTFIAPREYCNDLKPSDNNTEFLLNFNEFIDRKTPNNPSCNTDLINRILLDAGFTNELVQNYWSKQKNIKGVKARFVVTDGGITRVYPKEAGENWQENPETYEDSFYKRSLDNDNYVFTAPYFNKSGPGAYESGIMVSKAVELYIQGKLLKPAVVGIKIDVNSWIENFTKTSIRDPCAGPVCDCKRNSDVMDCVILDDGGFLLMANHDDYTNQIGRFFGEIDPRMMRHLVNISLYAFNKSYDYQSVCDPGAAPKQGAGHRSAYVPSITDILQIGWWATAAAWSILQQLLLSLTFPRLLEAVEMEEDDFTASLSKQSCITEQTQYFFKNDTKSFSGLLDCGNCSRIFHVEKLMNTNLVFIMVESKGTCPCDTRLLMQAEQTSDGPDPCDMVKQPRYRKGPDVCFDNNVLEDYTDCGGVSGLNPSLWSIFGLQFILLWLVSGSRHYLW
T1 sequence (P54287 whole entry partner): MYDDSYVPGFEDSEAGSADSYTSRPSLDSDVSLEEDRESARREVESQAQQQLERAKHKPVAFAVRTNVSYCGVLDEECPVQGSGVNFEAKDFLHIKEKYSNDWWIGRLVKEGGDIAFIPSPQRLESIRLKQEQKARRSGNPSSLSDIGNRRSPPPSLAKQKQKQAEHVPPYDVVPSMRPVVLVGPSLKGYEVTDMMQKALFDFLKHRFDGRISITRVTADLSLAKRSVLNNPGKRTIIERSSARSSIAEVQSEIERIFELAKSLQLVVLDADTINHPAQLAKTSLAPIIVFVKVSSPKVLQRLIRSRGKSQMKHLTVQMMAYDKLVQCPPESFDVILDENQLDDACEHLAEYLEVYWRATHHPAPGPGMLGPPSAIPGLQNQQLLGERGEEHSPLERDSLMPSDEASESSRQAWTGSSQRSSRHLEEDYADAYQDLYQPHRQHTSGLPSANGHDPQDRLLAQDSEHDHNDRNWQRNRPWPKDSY
Description: Lumbar DRGs were dissected from 100 g female Sprague-Dawley rats using procedures as described previously (Gomez et al., 2022). DRGs were excised and placed in sterile DMEM (Cat #11965; Thermo Fisher Scientific, Waltham, MA). The ganglia were dissociated enzymatically with collagenase type I (5 mg/mL, Cat #LS004194; Worthington) and neutral protease (3.125 mg/mL, Cat #LS02104; Worthington, Lakewood, NJ) for 50 minutes at 37° C. under gentle agitation. The dissociated cells were then centrifuged (800 rpm for 5 min) and resuspended in DMEM containing 1% penicillin/streptomycin sulfate (Cat #15140, Life Technologies, Carlsbad, CA), 10% fetal bovine serum [HyClone]), and 30 ng/mL nerve growth factor (Cat #N2513, Millipore Sigma, St. Louis, MO). The cells were seeded on poly-D-lysine (Cat #P6407, Millipore Sigma, St. Louis, MO) and laminin (Cat #sc-29012, Santa Cruz Biotechnology, Dallas, TX) -coated 12- or 15-mm glass coverslips and incubated at 37° C. All cultures were used within 48 hours.
Immunocytochemistry was performed on DRG neurons incubated with vehicle (0.1% DMSO) or CBD3063 (20 μM) overnight. […] For all quantitative comparisons among cells under differing experimental conditions, camera gain and other relevant settings were kept constant. The freeware image analysis program Image J (http://rsb.info.nih.gov/ij/) was used for quantifying cellular fluorescence. […]

total Ca2+ currents = assay: Whole-cell patch-clamp, total Ca2+ currents in small-to-medium DRG neurons; assay type: cell-based, rat; details: 20 μM overnight
Description: Recordings were obtained from acutely dissociated DRG neurons as described earlier (Bellampalli et al., 2019). Patch-clamp recordings were performed at room temperature (22-24° C.). Currents were recorded using an EPC 10 Amplifier-HEKA (HEKA Elektronik, Ludwigshafen, Germany) linked to a computer with Patchmaster software. DRG neurons were incubated overnight (˜16-24 hours) with 20 μM of CBD3063.
For total calcium current (ICa^2+) recordings, the external solution consisted of the following (in mM): 110 N-methyl-D-glucamine, 10 BaCl2, 30 TEA-Cl, 10 HEPES, 10 glucose, and 0.001 TTX (pH 7.29 adjusted with TEA-OH, and mOsm/L=310). Patch pipettes were filled with an internal solution containing (in mM): 150 CsCl2, 10 HEPES, 5 Mg-ATP, and 5 BAPTA, (pH 7.2 adjusted with CsOH, and mOsm/L-305). Peak Ca^2+ current was acquired by applying 200-millisecond voltage steps from −70 to +60 mV in 10-mV increments from a holding potential of −90 mV to obtain the current-voltage (I-V) relation. To measure the different subtypes of Ca^2+ channels, DRGs were treated with a Cav inhibitor cocktail omitting the inhibitor specific to the subtype being tested (e.g., to measure Cav2.2 currents, ω-conotoxin GVIA is omitted): Nifedipine (10 μM, L-type), ω-Conotoxin-GVIA (500 nM, […]) (Feng, et al., 2001), SNX482 (200 nM, R-type) (Newcomb et al., 1998), ω-agatoxin (200 nM, P/Q-type) (Mintz et al., 1992), TTA-P2 (1 μM, T-type) (Choe et al., 2011).
Normalization of currents to each cell's capacitance (pF) was performed to allow for collection of current density data. For I-V curves, functions were fitted to data using a non-linear least squares analysis. I-V curves were fitted using double Boltzmann functions:
where x is the pre-pulse potential, V1/2 is the mid-point potential, and k is the corresponding slope factor for single Boltzmann functions. Double Boltzmann fits were used to describe the shape of the curve, not to imply the existence of separate channel populations. Numbers 1 and 2 simply indicate first and second mid-points; a along with g are fitting parameters.
Activation curves were obtained from the I-V curves by dividing the peak current at each depolarizing step by the driving force according to the equation: G=I/(Vmem-Erev), where I is the peak current, Vmem is the membrane potential and Erev is the reversal potential. The conductance (G) was normalized against the maximum conductance (Gmax). For total and the different subtypes of Ca^2+ currents, steady-state inactivation (SSI) curves were obtained by applying an H-infinity protocol that consisted of 1.5-seconds conditioning pre-pulses from −100 to +30 mV in 10-mV increments followed by a 20-millisecond test pulse to +10 mV. For Na^+ currents, SSI curves were obtained by applying an H-infinity protocol that consisted of 1-second conditioning pre-pulses from −120 to +10 mV in 10-mV increments followed by a 200-millisecond test pulse to +10 mV. Inactivation curves were obtained by dividing the peak current recorded at the test pulse by the maximum current (Imax). Activation and SSI curves were fitted with the Boltzmann equation.

CC(=O)N[C@@H]1CCCN(C(=O)NCCCNc2ccccn2)C1 [CBD3063, (3R)-3-acetamido-N-[3-(pyridin-2-ylamino)propyl]piperidine-1-carboxamide]
Cav2.2 membrane/cytosol ratio (Cav2.2): 1.64±0.10
peak total calcium current density (total Ca2+ currents; +10 mV (DMSO: −93.23±10.40)): −49.84±6.17 pA/pF
reduction in Ca2+ currents at peak current density (total Ca2+ currents; +10 mV, vs 0.1% DMSO): ~46.54%
Total Ca2+ currents, activation V1/2 (total Ca2+ currents; mean ± SEM (n cells)): 0.971 ± 2.338 (16) mV
Total Ca2+ currents, activation k (slope factor) (total Ca2+ currents; mean ± SEM (n cells)): 11.004 ± 2.181 (16)
Total Ca2+ currents, inactivation V1/2 (total Ca2+ currents; mean ± SEM (n cells)): −20.944 ± 3.182 (16) mV
Total Ca2+ currents, inactivation k (slope factor) (total Ca2+ currents; mean ± SEM (n cells)): −14.132 ± 2.880 (16)
normalized peak total ICa2+ density (total Ca2+ currents; normalized to 0.1% DMSO control (1.00±0.06)): 0.51±0.04 ratio to DMSO control
